Source: US8471036B2, “Rhodacyanine derivative and pharmaceutical composition for treating leishmaniasis” (FUJIFILM Corporation, priority 2009, dated 2013)
“Also recorded” adds a separate entry of the source. Counter-ions that a name gives are not always drawn. Like-named read-outs stand apart in the source and are kept apart here.

Assays:
[1] = system: Rat-derived L6 cells (rat skeletal myoblast cells); assay: Rat L6 cell proliferation inhibition test; type: cell-based
Procedure: Rat-derived L6 cells (rat skeletal myoblast cells) were used. The cells were cultured at 37° C. at a CO2 concentration of 5%, using, as a culture medium, a RPMI 1640 medium supplemented with 1% L-glutamine (200 mM) and 10% fetal bovine serum (FBS).
Each of the compounds to be tested was dissolved in DMSO to give a test solution having a concentration of 10 mg/mL.
96-well culture plates of which each well contained 4×10^4 cells in 100 μL of the culture medium were prepared. After 24 hours, a 3-fold dilution series was prepared according to an ordinary method by adding a medium containing the compound to be tested, and the test was conducted.
After incubating the culture plates for 72 hours in an incubator, the plates were inspected with respect to proliferation activity. The inspection was conducted as follows. 10 μL of the Alamar Blue aqueous solution as described above was added to each well, and the plates were incubated for another 2 hours. Then, the culture plates were mounted on a microplate fluorometer, and irradiated with light at an excitation wavelength of 536 nm. The intensity of fluorescence at 588 nm was measured, and the residual ratios of L6 cells in the group added with the test solution and in the control were calculated.
The 50% proliferation inhibitory concentration (IC50) values were determined based on the residual ratios of cells obtained above, and the results are shown in Table 1. In Table 1, “ND” represents that the test was not conducted.

[2] = system: Leishmania donovani (L. Don, MHOM/ET/67/L82 strain); assay: Leishmania protozoa proliferation inhibition test (amastigotes, Alamar Blue); type: cell-based; conditions: for Selective Toxicity Coefficient: (IC50 against rat L6 cells)/(IC50 against leishmania protozoa)
Procedure: In this test, Leishmania donovani (L. Don, MHOM/ET/67/L82 strain) was used. The protozoa were maintained in the Syrian Golden hamster, and amastigotes were collected from the spleen of an infected hamster. A SM medium supplemented with 10% heat-inactivated fetal bovine serum was used in the experiment, and the pH was adjusted to 5.4. The protozoa were grown at 37° C. under an atmosphere having a CO2 concentration of 5%. The activity with respect to inhibition of the proliferation of leishmania protozoa was studied for Compounds A, C, and D according to the invention for test, and for MKT-077, Compound X, and miltefosine (positive compound, existing drug) as comparative compounds. The structures of the compounds are as shown below. Each compound was dissolved in DMSO to give a test solution having a predetermined concentration. Each of the compounds to be used in the test was dissolved in DMSO to give a test solution having a concentration of 10 mg/mL. Assays were performed in 96-well culture plates, with each well containing 100 μL of the culture medium containing 10^5 amastigotes with or without the test compound at a predetermined serial dilution. The test was conducted twice. […] Each culture plate was mounted on a microplate fluorometer, and irradiated with light at an excitation wavelength of 536 nm. The intensity of fluorescence at 588 nm was measured, and the residual ratios of leishmania protozoa in the group added with the test solution and in the control were calculated. […] The selective toxicity coefficient, which is used as an index of the selectivity against leishmania protozoa, was calculated according to the following equation, and the drug efficacy was evaluated. Selective toxicity coefficient=(IC50 value of the test compound against rat L6 cells)/(IC50 value of the test compound against leishmania protozoa)

[3] = system: leishmania protozoa in macrophages (L. Don); assay: Leishmania protozoa proliferation inhibition test in macrophages; type: cell-based, Leishmania donovani; conditions: amastigotes in murine peritoneal macrophages, 4 days incubation, number of infected macrophages
Procedure: The inhibitory activity on the proliferation of leishmania protozoa in macrophages was examined for Compounds A and B according to the invention and comparative compounds MKT-077, Compound X, Compound Y, Compound Z, and miltefosine (positive compound, existing drug). The structures of the compounds are as shown below. Peritoneal macrophages from NMRI mice are collected 1 day after stimulation of macrophage production with an intraperitoneal injection of 2 mL of a 2% potato starch suspension. The present test was conducted at 37° C. under an atmosphere having a CO2 concentration of 5%. Each of the compounds to be used in the test was dissolved in DMSO to give a test solution having a predetermined concentration. […] After 24 hours, 100 μL of a suspension containing amastigotes (1.2×10^6/mL) was further added to each well, giving a suspension having a amastigotes/macrophages ratio of 3/1. The amastigotes were prepared in the same manner as above, and suspended in the RPMI/FBS medium. After 24 hours, the medium containing free amastigotes was removed, the cells were washed once with medium, and fresh media containing the test compound at serial dilutions (four 3-fold dilutions for each compound) were added to the wells. […] The IC50 values were determined based on the number of infected macrophages.

[4] = system: Peritoneal macrophages from NMRI mice; assay: Toxic effect on macrophages in the macrophage test; type: cell-based; conditions: murine peritoneal macrophages in the macrophage test
Procedure: Peritoneal macrophages from NMRI mice are collected 1 day after stimulation of macrophage production with an intraperitoneal injection of 2 mL of a 2% potato starch suspension. The present test was conducted at 37° C. under an atmosphere having a CO2 concentration of 5%. Each of the compounds to be used in the test was dissolved in DMSO to give a test solution having a predetermined concentration.
100 μL of a murine macrophage suspension (4×10^5/mL) in a RPMI 1640 medium containing bicarbonate and N-2-hydroxyethylpiperazine-N′-2-ethanesulfonic acid (HEPES) and supplemented with 10% heat-inactivated fetal bovine serum (RPMI/FBS medium) was added to wells of 96-well culture plates. After 24 hours, 100 μL of a suspension containing amastigotes (1.2×10^6/mL) was further added to each well, giving a suspension having a amastigotes/macrophages ratio of 3/1. The amastigotes were prepared in the same manner as above, and suspended in the RPMI/FBS medium. After 24 hours, the medium containing free amastigotes was removed, the cells were washed once with medium, and fresh media containing the test compound at serial dilutions (four 3-fold dilutions for each compound) were added to the wells. The growth of the protozoa in samples treated with the test-compound-containing media was compared with that of the control. Specifically, after 4 days of incubation, the samples were fixed with methanol, and thereafter stained with a 10% Giemsa solution. The IC50 values were determined based on the number of infected macrophages.
It is unexpected and surprising finding that such a harsh toxic effect against macrophages is reduced by introduction of a halogen atom, particularly a fluorine atom, according to the invention, and anti-leishmania activity is manifested.

[5] = system: L. donovani (strain MHOM/ET/67/HU3); assay: Anti-leishmania activity test using mice infected with leishmania; type: in vivo, Female BALB/c mice; conditions: amastigotes per 500 liver cells
Procedure: Compound A was used as the test compound in this test. Further, a pentostam-sensitive L. donovani (strain MHOM/ET/67/HU3) was used in this test, and the protozoa were maintained in Syrian Golden hamsters, and amastigotes were isolated from spleen cells of the infected hamster. Then, an inoculum containing 7.5×10^7 amastigotes/mL in RPMI 1640 was prepared. Female BALB/c mice (20 g) were infected with the amastigotes by intravenous injection at the tail vein on day 0. On day 7 after infection, one mouse was sacrificed, liver smears were methanol-fixed and Giemsa-stained, thereby confirming infection. The test compound was dissolved in an aqueous solution containing 10% ethanol and 5% glucose, and administered to the mice once a day for 5 days from day 7 to day 11. 3 days after the completion of the administration of the drug, livers were removed and weighed, and smears were methanol-fixed and then Giemsa-stained. The number of amastigotes (average value) per 500 liver cells was determined by counting, and the infection inhibition rate was determined based on the comparison thereof with mice that had not been treated with the drug. Infection inhibition rate (%)=[1−(b−a)/(c−a)]×100 a: Initial infection rate b: Infection rate in the mice treated with the test solution c: Infection rate in the control mice

[6] = Rattus norvegicus, L6, 72 h, read-out: 50% Proliferation Inhibitory Concentration IC50 L-6 Cells, rat L6 cells, 72 hours incubation, Alamar Blue
[7] = Leishmania donovani, 72 h, pH 5.4, read-out: 50% Proliferation Inhibitory Concentration IC50 L. Don, amastigotes, 72 hours incubation, pH 5.4, Alamar Blue

SMILES: CCn1c(=O)/c(=C/C=C2\Sc3ccccc3N2C)s/c1=C\c1sc2ccc(F)cc2[n+]1C.[Cl-] [Compound A, 2-((3-ethyl-5-(2-(3-methylbenzo[d]thiazole-2(3H)-ylidene)ethylidene)-4-oxothiazolidine-2-ylidene)methyl-5-fluoro-3-methylbenzo[d]thiazole-3-ium chloride]
- IC50 ([1]; rat L6 cells, 72 hours incubation, Alamar Blue, read-out: 50% Proliferation Inhibitory Concentration IC50 L-6 Cells): > 173000 nM
- IC50 ([2]; Leishmania donovani, amastigotes, 72 hours incubation, pH 5.4, Alamar Blue, read-out: 50% Proliferation Inhibitory Concentration IC50 L. Don): 11 nM
- IC50 ([3]; Leishmania, Macrophage, 96 h): 353 nM

SMILES: CCn1c(=O)/c(=C/C=C2\Sc3ccccc3N2C)s/c1=C\c1sc2ccc(F)cc2[n+]1C [Compound C, 2-((3-ethyl-5-(2-(3-methylbenzo[d]thiazol-2(3H)-ylidene)ethylidene)-4-oxothiazolidin-2-ylidene)methyl)-5-fluoro-3-methylbenzo[d]thiazol-3-ium maleate]
- IC50 [1, 6]: 71700 nM
- Toxicity toward normal cells ([1]; rat L6 cells): only a weak toxicity toward normal cells
- Selective Toxicity Coefficient [2]: 2,870
- IC50 [2, 7]: 25 nM

SMILES: CCN1/C(=C/C=c2\s/c(=C\c3sc4c5ccccc5ccc4[n+]3CC)n(CC)c2=O)Sc2ccc3ccccc3c21 [Compound Y]
- Toxic effect against macrophages [4]: macrophages were killed by strong toxic effects; also recorded: Could not be tested as the macrophages died

SMILES: CCn1c(=O)/c(=C/C=C2\Sc3ccccc3N2C)s/c1=C\c1sc2ccc(F)cc2[n+]1C.[Cl-] [Compound A]
- Toxicity toward normal cells ([1]; rat L6 cells): only a weak toxicity toward normal cells
- melting point: 274.5 to 275.6 °C
- Infection Inhibition Rate ([5]; intravenous injection 0.20 mg/kg/day × 5 days): 16.1%
- Infection Inhibition Rate ([5]; intravenous injection 1.30 mg/kg/day × 5 days): 94.9%
- Infection Inhibition Rate ([5]; intravenous injection 4.10 mg/kg/day × 5 days): 97.1%
- Selective Toxicity Coefficient [2]: >15,000

SMILES: CCn1c(=O)/c(=C/C=C2\Sc3ccccc3N2C)s/c1=C\c1sc2ccc(F)cc2[n+]1C (as salt: maleate) [Compound C, 2-((3-ethyl-5-(2-(3-methylbenzo[d]thiazol-2(3H)-ylidene)ethylidene)-4-oxothiazolidin-2-ylidene)methyl)-5-fluoro-3-methylbenzo[d]thiazol-3-ium maleate]
- melting point: 260.1 to 260.8 °C

SMILES: CCn1c(=O)/c(=C/C=C2\Sc3ccccc3N2C)s/c1=C\c1sc2ccc(F)cc2[n+]1C [Compound D, 2-((3-ethyl-5-(2-(3-methylbenzo[d]thiazol-2(3H)-ylidene)ethylidene)-4-oxothiazolidin-2-ylidene)methyl)-5-fluoro-3-methylbenzo[d]thiazol-3-ium methanesulfonate]
- IC50 ([1]; read-out: 50% Proliferation Inhibitory Concentration IC50 L-6 Cells, rat L6 cells, 72 hours incubation, Alamar Blue, methanesulfonate): 84500 nM
- Selective Toxicity Coefficient ([2]; methanesulfonate): 4,220
- IC50 ([2]; read-out: 50% Proliferation Inhibitory Concentration IC50 L. Don, amastigotes, 72 hours incubation, pH 5.4, Alamar Blue, methanesulfonate): 20 nM

SMILES: CCCCCCCCCCCCCCCCOP(=O)([O-])OCC[N+](C)(C)C [Miltefosine, miltefosine, reference compound]
- IC50 ([2]; amastigotes, 72 hours incubation, pH 5.4, Alamar Blue, read-out: 50% Proliferation Inhibitory Concentration IC50 L. Don): 430 nM
- IC50 [3]: 811 nM

SMILES: CCN1CCS/C1=C\C=c1/s/c(=C\c2sc3c4ccccc4ccc3[n+]2CCO)n(CC)c1=O [Compound Z]
- Toxic effect against macrophages [4]: macrophages were killed by strong toxic effects; also recorded: Could not be tested as the macrophages died

SMILES: CCn1c(=O)/c(=C/C=C2\Sc3ccccc3N2C)s/c1=C\c1sc2ccccc2[n+]1C [Compound X, reference compound]
- IC50 [1, 6]: 125000 nM
- Selective Toxicity Coefficient [2]: 2,400
- IC50 [2, 7]: 52 nM
- Toxic effect against macrophages [4]: Could not be tested as the macrophages died
